Assay results reported in publication PMC11048155, “Antiviral Drug Candidate Repositioning for Streptococcus suis Infection in Non-Tumorigenic Cell Models” (Biomedicines, 2024).
Values after ≈ are worked out from the molar mass of the structure shown. “Also recorded” adds a separate entry of the source.

Experiments:
porcine hepatocytes = assay: IL-6 production, porcine IL-6 ELISA; type: cell-based; conditions: S. suis 10^4 CFU/mL in combination with inhibitor, 24 h
Method: (§1) After 24 h incubation time, the cell-free supernatants from […], MI-471, and MI-476 exposure were sampled from IPEC-J2 cells and from porcine hepatocytes. The changes in cytokine levels were detected with porcine IL-6 ELISA kits. The manufacturer’s instructions were followed to treat the supernatants and measured by a SpectraMax iD3 microplate reader at 450 nm.

IPEC-J2 cells [1] = assay: IL-6 production, porcine IL-6 ELISA; type: cell-based; conditions: IPEC-J2, S. suis 10^4 CFU/mL in combination with inhibitor, 24 h
Method: as §1

[2] = test system: Enterococcus (E.) faecalis (clinical isolate); assay: MIC measurement (broth microdilution); type: cell-based; conditions: Enterococcus; E. fecalis, source 442; 18–24 h at 37 °C; read-out: MIC
S. suis serotype 2 = assay: MIC measurement (broth microdilution); type: cell-based, Streptococcus suis; conditions: source 672/22, 18–24 h at 37 °C
IPEC-J2 cells [3] = assay: Cell viability, Neutral red assay; type: cell-based, porcine; conditions: IPEC-J2, S. suis 10^4 CFU/mL in combination with inhibitor 50 µM, 24 h
Description: The IPEC-J2 cell line is unique as it is non-transformed and non-tumorigenic. IPEC-J2 cells are derived from intestinal enterocytes extracted from the jejunum of neonatal unsuckled piglets. IPEC-J2 cells were gifted by Dr. Jody Gookin (Department of Clinical Sciences, College of Veterinary Medicine, North Carolina State University, Raleigh, NC, USA). […] The cells had undergone passage around 50 times. […] This experiment included plain DMEM/F12 medium as a control. At the end of the final treatments (24 h), the ratio of viable cells was measured by absorbance at 540 nm wavelength with a SpectraMax iD3 microplate reader.

[4] = test system: Escherichia (E.) coli (ATCC 11775); assay: MIC measurement (broth microdilution); type: cell-based; conditions: source ATCC, 18–24 h at 37 °C
[5] = test system: primary porcine hepatocytes; assay: Cell viability, Neutral red assay; type: cell-based; conditions: S. suis 10^4 CFU/mL in combination with inhibitor 50 µM, 24 h
Method: Porcine cryopreserved primary hepatocytes were obtained from Primacyt Cell Culture Company (Schwerin, Germany). Lonza Group Ltd. (Biocenter Ltd., Szeged, Hungary) supplied the thawing, plating, and maintenance media. The cytotoxic effects of inhibitors MI-432, MI-471, and MI-476 were tested on the viability of primary hepatocytes using the NR method. The hepatocytes were cultivated on a 96-well plate for 24 h, followed by incubation with the inhibitors at 0, 50, and 100 µM for an additional 24 h. Only cell maintenance medium was used to incubate the control cells. The plate underwent incubation together with NR dye for 2 h. Hepatocyte viability was recorded at 540 nm with a SpectraMax iD3 microplate reader.

Structure (SMILES)	IL-6 levels (porcine hepatocytes)	IL-6 levels (IPEC-J2 cells [1])	MIC [2]	MIC (S. suis serotype 2; Streptococcus suis)	MIC (S. suis serotype 2)	cell viability (IPEC-J2 cells [3])	MIC [4]	cell viability [5]
N=C(N)c1cccc(C[C@H](NS(=O)(=O)c2cccc(-c3ccc(Cl)cc3Cl)c2)C(=O)N2CCC(N)CC2)c1 [MI-471]	significant anti-inflammatory effects	significant anti-inflammatory effects	> 800 µM	3 µM (≈ 1.72 µg/mL)	3.125 µM (≈ 1.8 µg/mL)	did not show any negative effect on cell viability; also recorded: effectively suppressed	> 800 µM	
N=C(N)c1cccc(C[C@H](NS(=O)(=O)c2cccc(-c3ccc(Cl)cc3Cl)c2)C(=O)N2CCC(CN)CC2)c1 [MI-476]	significant anti-inflammatory effects	significant anti-inflammatory effects	> 800 µM	6 µM (≈ 3.53 µg/mL)	6.25 µM (≈ 3.68 µg/mL)	did not show any negative effect on cell viability; also recorded: effectively suppressed	> 800 µM	did not deteriorate cell viability; also recorded: effectively suppressed
